# Literature values, collected in patent US10272077B2, “Piperidinone carboxamide azaindane CGRP receptor antagonists” (Merck Sharp & Dohme Corp., priority 2010, dated 2019).
# Ends that are not written are not given here.
# Assays:
# [1] = control group (Petersen et al. 2005)
# [2] = marmoset (Doods et al. 2000)
# [3] = rats, prior administration (Williamson et al. 1997)
# [4] = rat (Escott et al. 1995)
compound,measurement,setting,value
O=C(N[C@@H]1CC[C@@H](c2cccc(F)c2F)CN(CC(F)(F)F)C1=O)N1CCC(n2c(=O)[nH]c3ncccc32)CC1 [telcagepant],antimigraine effectiveness,"phase III clinical trials, orally bioavailable",shown antimigraine effectiveness
NCCCC[C@H](NC(=O)[C@@H](Cc1cc(Br)c(O)c(Br)c1)NC(=O)N1CCC(N2Cc3ccccc3NC2=O)CC1)C(=O)N1CCN(c2ccncc2)CC1 [BIBN4096BS],prevention of headache induced by CGRP infusion,[1],able to prevent headache induced by CGRP infusion
same,treatment of acute attacks of migraine,clinical trials (Olesen et al. 2004),effective in treating acute attacks of migraine
same,effect on increase in facial blood flow,[2],could be blocked
"CGRP(8-37) (VTHRLAGLLSRSGGVVKNNFVPTNVGSKAF; ends and bridges not checked; UniProt P06881 90-119, looked up, fragment) [a peptide CGRP receptor antagonist]",effect on increase of middle meningeal artery diameter,[3],blocked
same,effect on increased facial blood flow,[4],inhibited
